Assay results as given in PubChem BioAssay AID1963865 (Molecular Pharmacology Branch, DTP, NCI, 2024).

Tested on: KRAS PDC multicell spheroid viability
Test: Anticancer human tumor 825966-067-R-J1-PDC patient-derived colon carcinoma cell line growth inhibition [KRAS2]
Details: for IC50: curve of first compound; for viability, T/C: stronger effect = lower value
How it was run: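 Combination screen of spheroid viability in tumor-cell co-cultures with endothelial (HUVEC) and mesenchymal stem cell stroma. Each agent was tested in half-log dilutions, topping at clinical Cmax or at 10 microM without a known Cmax.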

[1] = second compound 0.0316 µM, first compound 0.0316 µM
[2] = second compound 0.0316 µM, first compound 0.1 µM
[3] = second compound 0.0316 µM, first compound 0.316 µM
[4] = second compound 0.0316 µM, first compound 1 µM
[5] = second compound 0.0316 µM, first compound 3.16 µM
[6] = second compound 0.1 µM, first compound 0.0316 µM
[7] = second compound 0.1 µM, first compound 0.1 µM
[8] = second compound 0.1 µM, first compound 0.316 µM
[9] = second compound 0.1 µM, first compound 1 µM
[10] = second compound 0.1 µM, first compound 3.16 µM
[11] = second compound 0.316 µM, first compound 0.0316 µM
[12] = second compound 0.316 µM, first compound 0.1 µM
[13] = second compound 0.316 µM, first compound 0.316 µM
[14] = second compound 0.316 µM, first compound 1 µM
[15] = second compound 0.316 µM, first compound 3.16 µM
[16] = second compound 1 µM, first compound 0.0316 µM
[17] = second compound 1 µM, first compound 0.1 µM
[18] = second compound 1 µM, first compound 0.316 µM
[19] = second compound 1 µM, first compound 1 µM
[20] = second compound 1 µM, first compound 3.16 µM
[21] = second compound 3.16 µM, first compound 0.0316 µM
[22] = second compound 3.16 µM, first compound 0.1 µM
[23] = second compound 3.16 µM, first compound 0.316 µM
[24] = second compound 3.16 µM, first compound 1 µM
[25] = second compound 3.16 µM, first compound 3.16 µM
[26] = second compound 0.0316 µM, first compound 10 µM
[27] = second compound 0.1 µM, first compound 10 µM
[28] = second compound 0.316 µM, first compound 10 µM
[29] = second compound 1 µM, first compound 10 µM
[30] = second compound 3.16 µM, first compound 10 µM
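Further: spheroids exposed to compounds for 7 days.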
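Wherever viability, T/C is given: 100% = DMSO vehicle control viability.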

Compound	IC50 (second compound 0.0316 µM)	IC50 (second compound 0.1 µM)	IC50 (second compound 0.316 µM)	IC50 (second compound 1 µM)	IC50 (second compound 3.16 µM)	viability, T/C [1]	viability, T/C [2]	viability, T/C [3]	viability, T/C [4]	viability, T/C [5]	viability, T/C [6]	viability, T/C [7]	viability, T/C [8]	viability, T/C [9]	viability, T/C [10]	viability, T/C [11]	viability, T/C [12]	viability, T/C [13]	viability, T/C [14]	viability, T/C [15]	other results
CC1COCCN1c1cc(-c2ccnn2C)c2ccnc(-c3ccn[nH]3)c2n1 (stereo not given) + C=CC(=O)N1CCN(c2nc(OCC3CCCN3C)nc3c2CCN(c2cccc4cccc(C)c24)C3)CC1CC#N	> 3.16 µM	> 3.16 µM	0.208 µM	0.0895 µM	0.0145 µM	102%	69.1%	56.7%	73.8%	46.4%	114%	63.6%	46.8%	70.6%	49.5%	119%	65%	41.6%	61.1%	21.7%	viability, T/C (second compound 0.0316 µM, first compound 0.01 µM): 118%; viability, T/C (second compound 0.1 µM, first compound 0.01 µM): 101%; viability, T/C (second compound 0.316 µM, first compound 0.01 µM): 94.5%; viability, T/C (second compound 1 µM, first compound 0.01 µM): 120%; viability, T/C [16]: 123%; viability, T/C [17]: 39.6%; viability, T/C [18]: 56.3%; viability, T/C [19]: 39.3%; viability, T/C [20]: 34.4%; viability, T/C (second compound 3.16 µM, first compound 0.01 µM): 64.1%; viability, T/C [21]: 20.2%; viability, T/C [22]: 23.1%; viability, T/C [23]: 9.83%; viability, T/C [24]: 15.4%; viability, T/C [25]: 25.3%
CC1OCC2(CCN(c3cnc(Sc4ccnc(N)c4Cl)c(N)n3)CC2)C1N (stereo not given) + C=CC(=O)N1CCN(c2nc(OCC3CCCN3C)nc3c2CCN(c2cccc4cccc(C)c24)C3)CC1CC#N	8.77 µM	8.78 µM	6.86 µM	7.18 µM	5.79 µM	105%	97%	92.5%	82.3%	106%	84.6%	75%	114%	83.5%	89.9%	94.5%	83.5%	90.4%	107%	115%	viability, T/C [26]: 44%; viability, T/C [27]: 44.9%; viability, T/C [28]: 26.4%; viability, T/C [16]: 87.2%; viability, T/C [17]: 105%; viability, T/C [18]: 97.7%; viability, T/C [19]: 97.3%; viability, T/C [20]: 121%; viability, T/C [29]: 29.1%; viability, T/C [21]: 81.4%; viability, T/C [22]: 116%; viability, T/C [23]: 102%; viability, T/C [24]: 110%; viability, T/C [25]: 99%; viability, T/C [30]: 5.73%
CCNC(=O)CC1N=C(c2ccc(Cl)cc2)c2cc(OC)ccc2-n2c(C)nnc21 (stereo not given) + C=CC(=O)N1CCN(c2nc(OCC3CCCN3C)nc3c2CCN(c2cccc4cccc(C)c24)C3)CC1CC#N	> 10 µM	> 10 µM	> 10 µM	> 10 µM	0.725 µM	80.1%	112%	118%	115%	82.2%	79.5%	112%	113%	89.5%	79.4%	90%	119%	121%	118%	69.7%	viability, T/C [26]: 75.9%; viability, T/C [27]: 75.9%; viability, T/C [28]: 72.4%; viability, T/C [16]: 91.8%; viability, T/C [17]: 110%; viability, T/C [18]: 126%; viability, T/C [19]: 85.8%; viability, T/C [20]: 44.4%; viability, T/C [29]: 59.5%; viability, T/C [21]: 109%; viability, T/C [22]: 125%; viability, T/C [23]: 87.6%; viability, T/C [24]: 20.3%; viability, T/C [25]: 55.5%; viability, T/C [30]: 30.7%
Cn1nccc1Nc1nccc(-c2cc3c(s2)C(C)(C)N(CCN2CCOCC2)C3=O)n1 + C=CC(=O)N1CCN(c2nc(OCC3CCCN3C)nc3c2CCN(c2cccc4cccc(C)c24)C3)CC1CC#N	> 10 µM	> 10 µM	> 10 µM	> 10 µM	0.674 µM	108%	91.1%	121%	108%	95.3%	84%	91.6%	106%	100%	73.4%	72.2%	110%	125%	93.7%	75.9%	viability, T/C [26]: 68.5%; viability, T/C [27]: 79.8%; viability, T/C [28]: 61.2%; viability, T/C [16]: 85.9%; viability, T/C [17]: 96.1%; viability, T/C [18]: 127%; viability, T/C [19]: 96%; viability, T/C [20]: 64.8%; viability, T/C [29]: 56.4%; viability, T/C [21]: 84.9%; viability, T/C [22]: 76.4%; viability, T/C [23]: 104%; viability, T/C [24]: 4.64%; viability, T/C [25]: 27.8%; viability, T/C [30]: 57.8%
